Measurements from US5646188A, “Polyamine derivatives of 1-aminoindan” (priority 1995, dated 1997).
Where two headings read alike, the source gives them in different places.

Assays:
[1] = tested on: Cultures of Dissociated Neonatal Rat Cerebellum; experiment: Reversal of NMDA Induced Cell Death in cultures of dissociated neonatal rat cerebellum; type: cell-based; conditions: for PERCENT PROTECTION: cell survival minus the NMDA effect (30%); for viability at 0.005 µM: 0.005 μM + NMDA (1 mM, 3 hours); for viability at 0.1 µM: 0.100 μM + NMDA (1 mM, 3 hours); for viability at 1 µM: 1.000 μM + NMDA (1 mM, 3 hours)
Description: (§1) The cerebellum was aseptically dissociated from 6 or 7-day old rat pups and placed in a 15 ml sterile plastic conical tube containing 3 ml of Dulbecco's modified Eagle's medium (DMEM) with a high glucose concentration ([…]) and 2 mM (v/v) L-glutamine and an antibiotic antimitotic mixture. The cerebella were then dissociated after 20-25 passages through a sterile 13 gauge, 10 cm long stainless steel needle attached to a 5 ml syringe with an inserted 45 micrometer pore nylon sieve. The dissociated cells were centrifuged at 200 g for 5 minutes.
Cells were plated at a density of 200/mm^2 on poly-L-lysine coated surfaces. […] The plated cells were covered with enriched medium and incubated at 37° C. in an atmosphere of 5% CO2 in air and 97% humidity. […] Each test compound was tested in duplicate. Toxic-dose response was determined for each compound over a range from 0.005-1000 micromole. Four groups were run in each set of experiments;
I. Control, consisting of enriched media alone,
II. N-methyl-D-aspartate (NMDA, 1 mM for 3 hours) as the cytotoxic challenge,
III. Test compound plus NMDA, and
IV. Positive control, spermine, spermidine or putrescine (0.01 micromoles) plus NMDA.
Surviving cells in Culture are measured relative to control (100%) as described above. Percent protection is the Cell Survival for the test compound minus the NMDA effect. […] The Effective Protection was calculated as the percent of the Percent Protection (X) divided by the maximal protection value (e.g. X×100/70).

[2] = tested on: pyramidal neurons throughout the CA1 layer of the anterior hippocampus; experiment: Global Brain Ischemia In Gerbils; type: in vivo, mongolian gerbils; conditions: Meriones unguiculatus, Pyramidal neuron, 336 h, read-out: PERCENT PROTECTION
Description: Male mongolian gerbils, aged 2.5-5 months, housed 4-8 in a cage, were supplied freely with food and water and maintained at 24° C. with a 12 hour day/night cycle.
For surgery the animals were anesthetized with halothane (1.5% in 100% O2) and the common carotid arteries exposed bilaterally through a midline ventral neck incision. Each artery was clamped for 5 minutes with aneurysm clips to produce global brain ischemia. The anesthesia was discontinued upon clamping. After 5 minutes the clamps were removed and the wound closed with skin clips.
For treatment, the test compound or vehicle was injected intra-peritoneally(ip) in a volume of 50 microlitres of solvent per 10 g body weight. The first injection was given two minutes after clamp removal, and thereafter daily for the next 2 post-operative days (total of 3 injections).
Seven groups each of 4-8 animals were compared:
I. Control; (sham- or unoperated and saline treated),
II. Vehicle treated, unoperated (when solvent is other than saline),
III. Ischemia--untreated or saline treated),
IV. Ischemia--vehicle treated (when solvent is other than saline),
V. Ischemia--Test compound treated, one sub-group per concentration tested,
VI. Ischemia and pentobarbital (40 mg/kg) as positive control).
Analysis of neuronal damage was performed 14 days post-ischemia by counting pyramidal neurons throughout the CA1 layer of the anterior hippocampus in […] thick (paraffin) coronal brain sections stained with hematoxylin and erosin.
Percent Protection values represent the fraction of hippocampi protected from ischemia in a group of animals treated with the stated dose of compound.

in vitro = conditions: rat, cerebellum cell culture
Description: as §1, with “minutes. […] Cell viability was determined by the tryptan blue exclusion test.” for “minutes.”
Cells were plated at a density of 200/mm^2 on poly-L-lysine coated surfaces. Poly-L-lysine coated glass coverslips were prepared at least one hour in advance of plating by immersing sterile coverslips in sterile distilled water solution containing 15 microgram/ml poly-L-lysine, and washing in sterile water just prior. to use. […] After three days in culture, the media was replaced with media containing the desired test compound. Each test compound was tested in duplicate. Toxic-dose response was determined for each compound over a range from 0.005-1000 micromole. Four groups were run in each set of experiments;
Nerve cell survival was evaluated by phase contrast microscopy and tryptan blue staining after 24 hours.
Toxic dose-response curves were compiled using the protocol described above.

[3] = tested on: ischemia induced nerve cell death; conditions: gerbils; Gilad G et al.; cited from earlier work
[4] = Rattus norvegicus, 24 hours, read-out: SURVIVING CELL IN CULTURE (relative to control, 100%)
[5] = Rattus norvegicus, 0.010 μM + NMDA (1 mM, 3 hours), 24 hours, read-out: SURVIVING CELL IN CULTURE (relative to control, 100%)
[6] = ip, 10.0 mg/kg ip, 3 daily injections, 14 days post-ischemia, fraction of hippocampi protected
[7] = ip, 1.0 mg/kg ip, 3 daily injections, 14 days post-ischemia, fraction of hippocampi protected
[8] = positive control, 0.01 micromoles + NMDA

Compound	PERCENT PROTECTION ([1]; 0.005 μM + NMDA) [%]	PERCENT PROTECTION ([1]; 0.010 μM + NMDA) [%]	PERCENT PROTECTION ([1]; 0.100 μM + NMDA) [%]	viability at 0.005 µM [1, 4] [%]	viability at 0.01 µM [1, 5] [%]	viability at 0.1 µM [1, 4] [%]	responders at 10 mg/kg [2, 6] [%]	CC50 at 24 h (in vitro) [µM]	responders at 1 mg/kg [2, 7] [%]	further results
NCCCCN(CCCCN)C1CCc2ccccc21 (racemic) [Compound 2711, racemic N,N-di(4-amino-n-butyl)-1-aminoindan]	44	38	32	74	68	62	86	60		responders at 1 mg/kg ([2]; ip): 50%
N[C@@H]1C[C@@H](N)c2ccccc21 (relative stereo) [Compound 2716, trans 1,3-diaminoindan]	35	0	-5	65	30	25	0	0.7	50	PERCENT PROTECTION ([1]; 1.000 μM + NMDA): 0%; viability at 1 µM [1, 4]: 30%
N[C@@H]1CCc2ccccc21 [(R)-1-aminoindan, reference compound]	50	0	-2					175		responders at 0.1 mg/kg ([2]; ip): 25%; responders at 1 mg/kg ([2]; ip): 25%; responders at 10 mg/kg ([2]; ip): 25%
N[C@H]1CCc2ccccc21 [(S)-1-aminoindan, reference compound]										responders at 0.1 mg/kg ([2]; ip): 0%; responders at 1 mg/kg ([2]; ip): 50%; responders at 10 mg/kg ([2]; ip): 75%
NCCCNC1CCc2ccccc21 (centres unmarked) [Compound 2709, N-(3-aminopropyl)-1-aminoindan]	-4	23	29	26	53	59	31	50	12	PERCENT PROTECTION ([1]; 1.000 μM + NMDA): 13%; PERCENT PROTECTION ([1]; 10.00 μM + NMDA): 8%; viability at 1 µM [1, 4]: 43%; viability at 10 µM ([1]; Rattus norvegicus, 10.00 μM + NMDA (1 mM, 3 hours), 24 hours, read-out: SURVIVING CELL IN CULTURE (relative to control, 100%)): 38%
NCCCCNC1CCc2ccccc21 (centres unmarked) [Compound 2710]			42			72	37	30	25	PERCENT PROTECTION ([1]; 1.000 μM + NMDA): 40%; viability at 1 µM [1, 4]: 70%
N[C@@H]1C[C@H](N)c2ccccc21 [Compound 2715, cis 1,3-diaminoindan]	19		12	49		42	50	10		PERCENT PROTECTION ([1]; 1.000 μM + NMDA): 2%; viability at 1 µM [1, 4]: 32%; responders at 1 mg/kg ([2]; ip): 75%
NCCCCNCCCNC1CCc2ccccc21 (centres unmarked) [Compound 2720]	42	8	2	72	38	32	58	0.2		
NCCCNCCCCNCCCNC1CCc2ccccc21 (centres unmarked) [Compound 2721]	-2	-4		28	26		67	1	12	
NCCCCN(CCCN)C1CCc2ccccc21 (centres unmarked) [Compound 2722, N-(4-amino-n-butyl)-N-(3-amino-n-propyl)-1-aminoindan]	85	57		115	87		25	20	50	
NCCCNCCCCNC1CCc2ccccc21 (centres unmarked) [Compound 2724]	65	57		95	87		56	4	12	
NCCCCNCCCNCCCCNC1CCc2ccccc21 (centres unmarked) [Compound 2725]	42	8	2	72	38	32	25	20	0	
NCCCCN(CCCCN)[C@@H]1CCc2ccccc21 [Compound 2726, (R)-N,N-di(4-amino-n-butyl)-1-aminoindan]	99	25		129	55		50	1.7		
NCCCCN(CCCCN)[C@H]1CCc2ccccc21 [Compound 2727, (S)-N,N-di(4-amino-n-butyl)-1-aminoindan]	0	25		30	55		28.5	0.4		
NCCCCN(CCCCN)C1CCCc2ccccc21 (centres unmarked) [Compound 2728, N,N-di(4-amino-n-butyl)-1-amino-1,2,3,4-tetrahydronaphthalene]	-10	56		20	86			0.25		responders at 1 mg/kg ([2]; ip): 20%
CCCC(C)C1(CC)C(=O)NC(=O)NC1=O (centres unmarked) [Pentobarbital, pentobarbital, reference compound]										responders at 40 mg/kg ([2]; ip): 87.5%
NCCCCN [Putrescine, putrescine, reference compound]								300		PERCENT PROTECTION [1, 8]: 0%; responders at 10 mg/kg ([2]; 10.0 mg/kg ip, 3 daily injections, 14 days post-ischemia, fraction of hippocampi protected): 41%; protecting against ischemia induced nerve cell death [3]: activity
NCCCCNCCCN [Spermidine, spermidine, reference compound]							42	2		viability at 0.01 µM ([1]; Rattus norvegicus, positive control, 0.01 micromoles + NMDA (1 mM, 3 hours), 24 hours, read-out: SURVIVING CELL IN CULTURE (relative to control, 100%)): 78%; PERCENT PROTECTION [1, 8]: 48%; protecting against ischemia induced nerve cell death [3]: activity
